Experimental data from PMC8151276, “An Integrated Approach toward NanoBRET Tracers for Analysis of GPCR Ligand Engagement” (Molecules, 2021).

Tests used:
Type in all cases: binding
[1] = biological target: T1, PTGER3 (Homo sapiens, UniProt P43115); test: NanoBRET screen HiBiT-PTGER3 in HEK293
T1 construct: purchased Promega (in-house HiBiT-GPCR construct library, NanoBRET)
T1 sequence (P43115 1-390): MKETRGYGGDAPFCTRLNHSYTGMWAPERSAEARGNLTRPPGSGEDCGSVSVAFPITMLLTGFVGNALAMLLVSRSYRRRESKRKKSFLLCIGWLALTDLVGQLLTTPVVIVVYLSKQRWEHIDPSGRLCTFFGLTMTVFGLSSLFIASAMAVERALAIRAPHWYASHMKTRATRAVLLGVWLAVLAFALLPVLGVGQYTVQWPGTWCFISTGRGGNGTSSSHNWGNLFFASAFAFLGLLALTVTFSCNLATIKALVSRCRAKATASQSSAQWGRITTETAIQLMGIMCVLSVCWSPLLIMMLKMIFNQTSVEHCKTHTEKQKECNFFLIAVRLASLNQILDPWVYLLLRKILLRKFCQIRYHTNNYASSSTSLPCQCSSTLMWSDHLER
Method: (§1) Each tracer candidate was screened across the entire library of HiBiT-GPCR constructs using NanoBRET as the detection modality. As depicted in Figure 4A, the specificity of interactions was evaluated through decrease in BRET due to competitive displacement of a bound tracer by excess parental compound. Each tracer was analyzed for binding to each HiBiT-GPCR fusion in the absence and in the presence of competing parental compound. Briefly, HEK293 cells were transfected with HiBiT-GPCR constructs diluted into promoterless DNA to reduce expression and maximize translocation to the cell surface. Each tracer candidate was then screened at concentrations of 1 μM and 0.1 μM across cells expressing these fusions. Cells were treated for 1.5 h with tracer either alone or in the presence of 20 μM competing parental compound (i.e., control). BRET was measured upon addition of purified LgBiT and subsequent complementation with HiBiT genetically fused to a GPCR. The specificity of interactions was assessed through a decrease in BRET signal due to competitive displacement of the bound tracer. To further gauge the robustness of these interactions, the fold response over the control (i.e., BRETtracer/BRETcontrol) was calculated. We chose a 1.5-fold response, which translates to ≥7-fold signal over noise as the minimal threshold required to score an interaction as positive. […]. Below we highlight the screening results obtained for our exemplary fluorescent tracers based on Clozapine, Amitriptyline and AZD1283.
(§2) HiBiT-GPCR DNA constructs were diluted in 10 mM Tris pH 8 to a final concentration of 0.01 μg/μL, arrayed in 96-well plates and stored at −20 °C. For transfection, HEK293 cells were suspended in Opti-MEM (without phenol red) supplemented with 2% fetal bovine serum (Seradigm) and 100 units/mL penicillin–streptomycin (Gibco) at a final concentration of 220,000 cells/mL and dispensed into white 96-well plates at 90 μL/well. Subsequent transfections and screens were carried using an Agilent Bravo Automated Liquid Handling Platform. First, the 96-well HiBiT DNA arrays were diluted 25-fold in Opti-MEM (without serum or phenol red) to a final concentration of 0.0004 μg/μL and 20 μL of the diluted DNAs were transferred into new 96-well plates. Next, promoterless carrier DNA (1 μg/μL) was diluted 25-fold (0.04 μg/μL) and then dispensed into the diluted arrays at 20 μL/well. Following brief mixing, Viafect transfection reagent (Promega) diluted 16-fold into Opti-MEM was dispensed into the plates at 40 μL/well. After mixing by pipetting, plates were incubated for 10 min on the pipetting station deck. The DNA-transfection reagent complexes were then added to plates containing cells. To facilitate the screen, 10 μL of DNA-transfection reagent complexes were added in duplicates to the top 4 and bottom 4 rows, resulting in two identical 48-well arrays per plate. Plates with transfected cells were incubated for 18–20 h at 37 °C/5% CO2. A screen of each tracer across the entire library using two different concentrations requires duplicate plates of transfected cells. Depending on the number of tracers being screened, transfections can be scaled up using the same ratios. The next day, for each tracer, four 20× screening solutions in tracer dilution buffer (Promega) were prepared: two duplicates at final concentration of 20 μM and two duplicates at a final concentration of 2 μM. A competing unmodified compound was added to one of each duplicate at a final concentration of 400 μM. The four resulting solutions were diluted 4-fold in Opti-MEM without serum or phenol red to generate 5× solutions (5 µM and 0.5 µM tracer +/− 100 μM competing compound). To screen the library, a BioTek MultiFlo FX liquid dispenser was used to dispense 22.5 µL of tracer solution to the top 4 rows and 22.5 µL tracer + competing compound solution to the 4 bottom rows. Plates were briefly mixed on an orbital shaker and incubated for 1.5 h at room temperature. […]

[2] = biological target: T2, P2RY13 (Homo sapiens, UniProt Q9BPV8); test: NanoBRET screen HiBiT-P2RY13 in HEK293
T2 construct: purchased Promega (in-house HiBiT-GPCR construct library, NanoBRET)
T2 sequence (Q9BPV8 1-354): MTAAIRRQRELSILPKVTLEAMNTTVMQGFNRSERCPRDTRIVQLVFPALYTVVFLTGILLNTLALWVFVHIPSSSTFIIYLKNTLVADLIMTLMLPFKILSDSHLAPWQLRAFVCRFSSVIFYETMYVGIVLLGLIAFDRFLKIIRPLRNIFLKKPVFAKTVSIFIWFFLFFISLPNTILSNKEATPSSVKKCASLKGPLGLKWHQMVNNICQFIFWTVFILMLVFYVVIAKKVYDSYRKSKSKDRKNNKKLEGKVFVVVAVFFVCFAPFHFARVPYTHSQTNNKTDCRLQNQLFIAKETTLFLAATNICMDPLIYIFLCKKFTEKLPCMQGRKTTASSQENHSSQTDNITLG
Method: as §1, §2

[3] = biological target: T3, GALR1 (Homo sapiens, UniProt P47211); test: NanoBRET screen HiBiT-GALR1 in HEK293
T3 construct: purchased Promega (in-house HiBiT-GPCR construct library, NanoBRET)
T3 sequence (P47211 1-349): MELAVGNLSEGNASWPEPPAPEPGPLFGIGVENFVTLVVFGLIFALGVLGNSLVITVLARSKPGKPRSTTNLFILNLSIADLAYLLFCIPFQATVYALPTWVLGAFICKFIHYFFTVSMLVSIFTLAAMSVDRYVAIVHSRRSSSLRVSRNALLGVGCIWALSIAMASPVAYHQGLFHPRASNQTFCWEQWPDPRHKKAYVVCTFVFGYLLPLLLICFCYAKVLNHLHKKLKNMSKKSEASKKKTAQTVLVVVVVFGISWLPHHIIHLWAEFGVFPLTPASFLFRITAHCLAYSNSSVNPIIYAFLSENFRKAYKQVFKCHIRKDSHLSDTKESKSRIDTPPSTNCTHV
Method: as §1, §2

## O=C(CCc1ccc2n1[B-](F)(F)[N+]1=C(c3ccc[nH]3)C=CC1=C2)NCc1ccc(C(=O)NCCOCCC(=O)N[C@@H]2CC[C@@]3(O)[C@H]4Cc5ccc(O)c6c5[C@@]3(CCN4CC3CC3)[C@H]2O6)cc1 [Naltrexone-3-NB590]
[1]; PTGER3, tracer 0.1μM
  NanoBRET Fold Response: 0.94
[1]; PTGER3, tracer 1μM
  NanoBRET Fold Response: 0.79
[2]; P2RY13, tracer 0.1μM
  NanoBRET Fold Response: 0.62
[2]; P2RY13, tracer 1μM
  NanoBRET Fold Response: 0.92
[3]; GALR1, tracer 0.1μM
  NanoBRET Fold Response: 0.99
[3]; GALR1, tracer 1μM
  NanoBRET Fold Response: 0.89

## CN1CCN(C2=Nc3cc(Cl)ccc3N(CC(=O)NCCOCCOCCOCCOCCNC(=O)CCc3ccc4n3[B-](F)(F)[N+]3=C(c5ccc[nH]5)C=CC3=C4)c3ccccc32)CC1 [Clozapine-c-2-NB590]
[1]; PTGER3, 0.1μM tracer
  NanoBRET Fold Response: 1.00
[1]; PTGER3, 1μM tracer
  NanoBRET Fold Response: 1.11
[2]; P2RY13, 0.1μM tracer
  NanoBRET Fold Response: 0.99
[2]; P2RY13, 1μM tracer
  NanoBRET Fold Response: 0.99
[3]; GALR1, 0.1μM tracer
  NanoBRET Fold Response: 1.02
[3]; GALR1, 1μM tracer
  NanoBRET Fold Response: 1.03

## O=C(CCOCCOCCOCCOCCNC(=O)CCc1ccc2n1[B-](F)(F)[N+]1=C(c3ccc[nH]3)C=CC1=C2)NCCCN1CCN(C2=Nc3cc(Cl)ccc3Nc3ccccc32)CC1 [Clozapine-a-2-NB590]
[1]; PTGER3, 0.1μM tracer
  NanoBRET Fold Response: 1.03
[1]; PTGER3, 1μM tracer
  NanoBRET Fold Response: 1.12
[2]; P2RY13, 0.1μM tracer
  NanoBRET Fold Response: 1.06
[2]; P2RY13, 1μM tracer
  NanoBRET Fold Response: 0.94
[3]; GALR1, 0.1μM tracer
  NanoBRET Fold Response: 1.05
[3]; GALR1, 1μM tracer
  NanoBRET Fold Response: 1.09

## CCOC(=O)c1cc(C#N)c(N2CCC(C(=O)NS(=O)(=O)Cc3ccccc3/C=C/C(=O)NCCNC(=O)CCc3ccc4n3[B-](F)(F)[N+]3=C(c5ccc[nH]5)C=CC3=C4)CC2)nc1C [AZD1283-1-NB590]
[1]; PTGER3, 0.1μM
  NanoBRET Fold Response: 1.08
[1]; PTGER3, 1μM
  NanoBRET Fold Response: 1.10
[2]; P2RY13, 0.1μM
  NanoBRET Fold Response: 1.93
[2]; P2RY13, 1μM
  NanoBRET Fold Response: 1.83
[3]; GALR1, 0.1μM
  NanoBRET Fold Response: 1.03
[3]; GALR1, 1μM
  NanoBRET Fold Response: 1.09

## COc1ccc2[nH]c(-c3ccc(CNC(=O)CCOCCOCCOCCOCCNC(=O)CCc4ccc5n4[B-](F)(F)[N+]4=C(c6ccc[nH]6)C=CC4=C5)cc3)c(CCNC(C)=O)c2n1 [AzomelatoninICO9-2-NB590]
[1]; 0.1μM tracer
  NanoBRET Fold Response: 1.04
[1]; 1μM tracer
  NanoBRET Fold Response: 1.20
[2]; 0.1μM tracer
  NanoBRET Fold Response: 0.87
[2]; 1μM tracer
  NanoBRET Fold Response: 1.09
[3]; 0.1μM tracer
  NanoBRET Fold Response: 0.87
[3]; 1μM tracer
  NanoBRET Fold Response: 1.05

## CCCn1c(=O)c2[nH]c(-c3ccc(OCC(=O)NCCNC(=O)CCOCCNC(=O)c4ccc(CNC(=O)CCc5ccc6n5[B-](F)(F)[N+]5=C(c7ccc[nH]7)C=CC5=C6)cc4)cc3)nc2n(CCC)c1=O [XAC-3-NB590]
[1]; PTGER3, tracer 0.1μM
  NanoBRET Fold Response: 0.97
[1]; PTGER3, tracer 1μM
  NanoBRET Fold Response: 1.05
[2]; P2RY13, tracer 0.1μM
  NanoBRET Fold Response: 1.00
[2]; P2RY13, tracer 1μM
  NanoBRET Fold Response: 1.03
[3]; GALR1, tracer 0.1μM
  NanoBRET Fold Response: 1.02
[3]; GALR1, tracer 1μM
  NanoBRET Fold Response: 1.04

## COc1ccccc1N1CCN(CCCCN2C(=O)c3ccc(CNC(=O)CCOCCNC(=O)c4ccc(CNC(=O)CCc5ccc6n5[B-](F)(F)[N+]5=C(c7ccc[nH]7)C=CC5=C6)cc4)cc3C2=O)CC1 [NAN-190-3-NB590]
[1]; PTGER3, tracer 0.1μM
  NanoBRET Fold Response: 0.99
[1]; PTGER3, tracer 1μM
  NanoBRET Fold Response: 0.64
[2]; P2RY13, tracer 0.1μM
  NanoBRET Fold Response: 1.02
[2]; P2RY13, tracer 1μM
  NanoBRET Fold Response: 0.92
[3]; GALR1, tracer 0.1μM
  NanoBRET Fold Response: 1.09
[3]; GALR1, tracer 1μM
  NanoBRET Fold Response: 0.99

## O=C(CCc1ccc2n1[B-](F)(F)[N+]1=C(c3ccc[nH]3)C=CC1=C2)NCc1ccc(C(=O)NCCOCCOCCNCC(O)COc2cccc3ccccc23)cc1 (stereo not shown) [Propranolol-3-NB590]
[1]; PTGER3, 0.1μM
  NanoBRET Fold Response: 1.04
[1]; PTGER3, 1μM
  NanoBRET Fold Response: 1.08
[2]; P2RY13, 0.1μM
  NanoBRET Fold Response: 0.90
[2]; P2RY13, 1μM
  NanoBRET Fold Response: 0.97
[3]; GALR1, 0.1μM
  NanoBRET Fold Response: 1.02
[3]; GALR1, 1μM
  NanoBRET Fold Response: 0.96

## COc1ccc2c(n1)c(CCNC(C)=O)cn2CCNC(=O)CCc1ccc2n1[B-](F)(F)[N+]1=C(c3ccc[nH]3)C=CC1=C2 [Azamelatonin-1-NB590]
[1]; 0.1μM tracer
  NanoBRET Fold Response: 1.00
[1]; 1μM tracer
  NanoBRET Fold Response: 1.25
[2]; 0.1μM tracer
  NanoBRET Fold Response: 1.08
[2]; 1μM tracer
  NanoBRET Fold Response: 1.08
[3]; 0.1μM tracer
  NanoBRET Fold Response: 1.06
[3]; 1μM tracer
  NanoBRET Fold Response: 1.00

## O=C(CCOCCOCCOCCOCCNC(=O)CCc1ccc2n1[B-](F)(F)[N+]1=C(c3ccc[nH]3)C=CC1=C2)NCCCN1CCN(C2=Nc3ccccc3Oc3ccc(Cl)cc32)CC1 [Loxapine-a-2-NB590]
[1]; PTGER3, tracer 0.1μM
  NanoBRET Fold Response: 0.98
[1]; PTGER3, tracer 1μM
  NanoBRET Fold Response: 0.98
[2]; P2RY13, tracer 0.1μM
  NanoBRET Fold Response: 0.92
[2]; P2RY13, tracer 1μM
  NanoBRET Fold Response: 0.96
[3]; GALR1, tracer 0.1μM
  NanoBRET Fold Response: 1.03
[3]; GALR1, tracer 1μM
  NanoBRET Fold Response: 1.21

## CN(C)CCC=C1c2ccccc2CCc2ccc(C(=O)NCCNC(=O)CCOCCOCCOCCOCCNC(=O)CCc3ccc4n3[B-](F)(F)[N+]3=C(c5ccc[nH]5)C=CC3=C4)cc21 [Amitriptyline-a-2-NB590]
[2]; tracer at 0.1μM
  NanoBRET Fold Response: 1.09
[2]; tracer at 1μM
  NanoBRET Fold Response: 0.85
[3]; tracer at 0.1μM
  NanoBRET Fold Response: 1.05
[3]; tracer at 1μM
  NanoBRET Fold Response: 0.97
